Assays:
[1] = Metabolic stability in liver microsomes and cryopreserved hepatocytes; format: in vitro ADME; conditions: human, rat and mouse liver microsomes and cryopreserved hepatocytes
Source text: a Measured physicochemical and solubility data for WEHI-7326. […] Microsomal-predicted EH values are included.

134169 HGSOC PDX = experiment: HGSOC post-chemo PDX model 134169; format: in vivo, NSG mice; conditions: 134169 post-taxane, cisplatin-refractory PDX; 20 mg/kg i.v. twice a week, 6 weeks
Protocol: Two to three mm ovarian tumor fragments were subcutaneously engrafted in the left flank of NSG mice and monitored by physical palpation for tumor growth and engraftment. Engrafted tumors were measured twice a week using digital Vernier calipers and maximum tumor diameter + perpendicular tumor length were digitally recorded into the Study Director software (v 3.0/4.0 StudyLog). Tumor volume was calculated automatically (tumor volume (mm^3) = 0.5236 x [larger diameter (mm) x smaller diameter (mm)^2]). Mice were randomized to treatment once their tumor volume reach 180–300 mm^3 and tumor measurements were performed twice a week up to 120 days or when the tumor volume reaches 700 mm^3.
Time to progressive disease (PD): Defined as the time (in days) from beginning of treatment to an increase in average tumor volume of >20% from the nadir (taken as the smallest average tumor volume recorded since treatment started or 200 mm^3 if nadir was <200 mm^3 as lesions smaller than this are difficult to measure with accuracy). Median time to harvest (TTH): Defined as the time (in days) from the beginning of treatment to day of harvest at 700 mm^3 and the median TTH was calculated and plotted using Kaplan-Meier curves. Based on ref. [27]. […]

MDA-MB-231 = experiment: Cell cycle analysis (G2/M arrest, PI staining, flow cytometry), MDA-MB-231; format: cell-based; conditions: Homo sapiens, MDA-MB-231, read-out: EC50 (G2/M arrest)
Protocol: Fig. 2 Antimitotic activity of WEHI-7326: cancer cell lines and effects on tubulin polymerization. a Dose-dependent antimitotic activity of WEHI-7326, nocodazol and taxol in tumor cell lines SW480 (colorectal) and MDA-MB-231 (breast). Data are presented as percentage of cells in G2/M after overnight incubation with increasing concentrations of inhibitors and PI staining followed by flow cytometry analysis. Mean average of 3 independent experiments ±SEM. b EC50 values (nM) for G2/M arrest on SW480 and MDA-MB-231 cell lines, given as mean average of 3 independent experiments ±SEM. c Western blot analysis of mitotic arrest in SW480 and MDA-MB-231 cells treated with EC50 concentrations of WEHI-7326 or Paclitaxel as marked by expression of phosho-S10 Histone H3 (p-HH3 S10), at different timepoints post treatment. Expression of β-actin provided as loading control. d Cell cycle analysis of LIM1899 cells 72 h post treatment with increasing concentrations of WEHI-7326 as measured by PI staining for DNA content followed by flow cytometry analysis. Sub-G1 represents apoptotic fractions and >4 N cell fractions of mitotic slippage. e Immunofluorescence confocal microscopy of tubulin polymerization in SW480 cells treated by various agents. […] Representative blot of 3 independent experiments. g Tubulin polymerization was assessed in vitro over time using a fluorescence-based tubulin polymerization assay (BK011P). […] Polymerization was measured by excitation at 360 nm and emission at 420 nm. […]
Cells in log growth were supplemented with fresh medium with either vehicle (control) or compound at the stated final concentrations. […] After 1 h incubation at room temperature in the dark, cells were analyzed on a FACScan (Becton and Dickinson) in CellQuest. The percentage of cells in each phase of the cell cycle was determined using ModFit software (Verity, http://www.vsh.com). Early and late apoptotic responses elicited by WEHI-7326 were assessed using Dead Cell Apoptosis Kit (ThermoFisher Scientific) with Annexin V FITC and PI following manufacturer’s instructions. […]

PC3 = experiment: Cell growth inhibition assay, PC3; format: cell-based; conditions: Homo sapiens, PC-3; PC3, prostate carcinoma; 72 h viability assay, CellTiterGlo; mean of 3 ± SEM; read-out: IC50 (inhibition of cellular proliferation)
Protocol: Cells were plated at a density of between 500 to 5000 cells per well for adherent cell lines depending on doubling time, and 15,000 cells per well for lymphoblastic leukemia cell lines, in a 96-well plate in 200 μl of growth media. Plates were incubated overnight at 37 °C before adding the inhibitors. Inhibitors were serially diluted from the stock solutions in complete medium and added to the cells. Incubation in the presence of inhibitors was continued for […]. Cell viability was assessed by the AlamarBlue (Invitrogen) or CellTiterBlue/Glo (Promega) method according to manufacturer’s instructions. The curve fits and IC50 values were generated in PRISM (GraphPad, San Diego, CA).

For COc1ccc(CNc2nc(NCc3ccc(CN)cc3)nc(NN3CC(=O)NC3=O)n2)cc1 [WEHI-7326], the Rate of metabolism [1] was “low rates of metabolism”, the Tumor response (134169 HGSOC PDX) was “ineffective” and the EC50 (MDA-MB-231) was 19 ± 2.2 nM. The IC50 (PC3) was 48.9 ± 11.1 nM.
